Laboratory results as given in patent EP3572468B1, “CYANINE DYES AND THEIR USAGE FOR IN VIVO STAINING OF MICROORGANISMS” (PHILIPPS-UNIVERSITÄT MARBURG, priority 2018, dated 2019).

What was measured:
[1] = test system: double-stranded calf thymus DNA (dsDNACT); test: Fluorescence titration with dsDNACT, binding affinity by DynaFit; conditions: 1 µM dye in 10 mM Tris pH 7.6 and 50 mM KCI, 20°C, emission at 647 nm, 1:1 binding model, read-out: binding affinity (KD, apparent dissociation constant)
Description: Fluorescence measurements and tritations were performed on a Jasco FP-6500 spectrofluorometer equipped with a Thermo Haake WKL 26 water recirculator at 20°C. Unless otherwise noted, a 1400 µL fluorescence cuvette of HellmaAnalytics (104F-QS) was used and the measurements were performed with the following settings: increment: 1.0 nm; integration time: 0.2 s; speed: 500 nm/min; sensitivity: medium; excitation slit width: 3 nm; emission slit width: 3 nm; excitation wavelength 610 nm. The emission spectra were recorded from 625 to 750 nm at 20°C. From all spectra, the corresponding background signal was substracted. […] Table 1: Binding sites and sequences of DNA hairpins, which were used for fluorescence titrations experiments.
All fluorescence titrations followed the same procedure: to 1 mL of 1 µM solution of corresponding cyanine dye derivative in 10 mM Tris pH 7.6 and 50 mM KCI aliquots of a stock solution of the corresponding annealed DNA (dsDNAhAT and dsDNAhGC = 435 µM; dsDNACT = 0.65 mM) were successively added and the fluorescence spectra were recorded in a range from 625-750 nm after 1 min of each addition. […] The fluorescence emission plotted is the resulting mean of the three independent measurements. […]
All binding affinities were determined by fitting the obtained experimental data in the DynaFit 4.0 software. […]

[2] = Excitation and emission spectra; assay type: physicochemical; conditions: aqueous solution; 10 µM in 10 mM Tris pH 7.6 and 50 mM KCI
Description: Fluorescence measurements and tritations were performed on a Jasco FP-6500 spectrofluorometer equipped with a Thermo Haake WKL 26 water recirculator at 20°C. Unless otherwise noted, a 1400 µL fluorescence cuvette of HellmaAnalytics (104F-QS) was used and the measurements were performed with the following settings: increment: 1.0 nm; integration time: 0.2 s; speed: 500 nm/min; sensitivity: medium; excitation slit width: 3 nm; emission slit width: 3 nm; excitation wavelength 610 nm. The emission spectra were recorded from 625 to 750 nm at 20°C. From all spectra, the corresponding background signal was substracted. The used hairpin double-stranded DNAs dsDNAhAT and dsDNAhGC had the sequences depicted in Table. 1. Table 1: Binding sites and sequences of DNA hairpins, which were used for fluorescence titrations experiments.
For each cyanine dye derivative: 6-AzTO-3, 6-TramTO-3 and 6-NH2TO-3, the excitation and emission spectra of a 10 µM solution of the corresponding compound in 1 mL of 10 mM Tris pH 7.6 and 50 mM KCI were measured. The excitation spectra were recorded at an emission of 670 nm in a rage from 500 - 660 nm (slit 5/10 nm), while the emission spectra were measured at an excitation of 590 nm in a range from 600 - 750 nm (slit 5/10 nm). (cf. Fig. 13)

[3] = test system: primary human macrophages; test: Uptake of 6-TramTO-3-labeled bacteria by macrophages (co-culture, FACS); assay type: cell-based; conditions: multiplicity of infection of 20
Description: For primary human macrophage cultures buffy coats from blood donations were loaded onto Lymphoprep™ gradient medium (Fresenius Kabi) followed by centrifugation. The peripheral blood mononuclear cell band was isolated from the gradient and monocytes were enriched using CD14 MACS beads (Miltenyi) according to the manufacturer's instructions. To differentiate monocytes into macrophages cells were cultured in 6-well plates (800.000 cells/mL) in 2 mL X-Vivo 15 medium (Lonza) supplemented with 5 % fetal bovine serum (Biochrom) and 15 ng/mL recombinant human GM-CSF (Preprotech). On day 7 macrophages were considered terminally differentiated and treated with stained bacteria. To this end bacteria stained as described above were sampled at an OD600 nm = 2.0 and washed five times with phosphate buffered saline (PBS). After the last wash bacteria were brought to an OD600 nm of 2.0 and 16 µL, equivalent to 16.000.000 bacteria were added to each well to achieve a multiplicity of infection of 20. Culture plates were then centrifuged for 10 min at 250 G and 37°C to establish physical contact between macrophages and bacteria. Subsequently, culture plates were transferred back into a 37°C incubator with CO2 atmosphere for the remainder of the stimulation period.
Bacteria and macrophages were washed with PBS prior to flow cytometry and analysed using a Guava easyCyte flow cytometer (Millipore). FCS3.0 files were analysed using Flowing Software (http://flowingsoftware.btk.fi/). Cells were first gated in the forward- / side-scatter plot to exclude debries, followed by quadrant gating in plots using the fluorescence channels as shown above. For discrimination of live/dead cell discrimination cells in PBS were supplemented with 0.4 µL/mL propidium-iodide (5 mg/ml solution) followed by 5 min incubation on ice. Propidium iodide signal was recorded in the yellow channel.

CC[n+]1ccc(/C=C/C=C2\Sc3ccccc3N2CCCCCCn2cc(CN)nn2)c2ccccc21.[I-] [6-TramTO-3, 4-((1E,3Z)-3-(3-(6-(4-(aminomethyl)-1H-1,2,3-triazol-1-yl)hexyl)benzo[d]thiazol-2(3H)-ylidene)prop-1-en-1-yl)-1-ethylquinolin-1-ium iodide]
Kd [1]: 19.5 ± 2.6 µM | long wavelength maximum of emission [2]: 645 nm | long wavelength maximum of excitation [2]: 633 nm | red-shift of the macrophages (bacterial uptake) ([3]; macrophages exposed to 6-TramTO-3-labeled E. coli): ~ 26% | macrophages that took up bacteria (red-shifted) ([3]; macrophages exposed to 6-TramTO-3-labeled antibiotic sensitive Klebsiella strain): ~ 0.2% | macrophages that took up bacteria (red-shifted) ([3]; macrophages exposed to 6-TramTO-3-labeled antibiotic-resistant Klebsiella strain): ~ 4%
